Test results: patent US9452997B2, “Piperidine and piperazine derivatives as autotaxin inhibitors” (Merck Patent GmbH, priority 2009, dated 2016)

The compounds below were run against T1, Recombinant autotaxin (Homo sapiens, UniProt Q13822) (assay: Autotaxin assay (Amplex Red, LPC substrate)). Details: % of control at 1E−05 (compound concentration); uninhibited control = 100%.
T1 construct: made in house; host or cells: Hi5 insect cells (baculovirus)
Format: biochemical
How it was run: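 Recombinant autotaxin (Hi5 baculovirus, 16 ng) pre-incubated with compound 30 min at 22° C, then reacted with 75 μM egg LPC for 90 min at 37° C. Choline released is coupled to H2O2 and Amplex Red fluorescence (ex 485/em 612 nm). IC50 from ten 1:3 dilutions from 30 μM, duplicates, normalised to 500 μM C14 LPA.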

| Structure (SMILES) | % CTRL (1E−05) [%] |
| --- | --- |
| O=C(c1cc(Cl)c(F)c(Cl)c1)N1CCC(N2CCN(C(=O)c3ccc4[nH]nnc4c3)CC2)CC1 [Compound 91, (1H-Benzotriazol-5-yl)-{4-[1-(3,5-dichloro-4-fluoro-benzoyl)-piperidin-4-yl]-piperazin-1-yl}-methanone] | 66 |
| O=C(Nc1ccc2[nH]nnc2c1)C1CC(=O)N(C2CCN(C(=O)OCC3CCCO3)CC2)C1 (stereo not drawn) [Compound 27, 4-[4-(1H-Benzotriazol-5-ylcarbamoyl)-2-oxo-pyrrolidin-1-yl]-piperidine-1-carboxylic acid tetrahydro-furan-2-ylmethyl ester] | 83 |

Same assay, conditions: recombinant autotaxin, LPC substrate, Amplex Red detection; values given as upper bounds

| Structure (SMILES) | IC50 [µM] |
| --- | --- |
| O=C(OCC1CN(c2ccc(Cl)cc2)C(=O)O1)N1CCN(C2CCN(C(=O)c3ccc4[nH]nnc4c3)CC2)CC1 (stereo not drawn) [Compound 175, 4-[1-(1H-Benzotriazole-5-carbonyl)-piperidin-4-yl]-piperazine-1-carboxylic acid 3-(4-chloro-phenyl)-2-oxo-oxazolidin-5-ylmethyl ester] | < 10 |
| O=C(OCc1ccc(Cl)c(Cl)c1)N1CCN(C2CCN(C(=O)c3ccc4[nH]nnc4c3)CC2)CC1 [Compound 45, 4-[1-(1H-Benzotriazole-5-carbonyl)-piperidin-4-yl]-piperazine-1-carboxylic acid 3,4-dichloro-benzyl ester] | < 1 |
| O=C(OCc1c(F)c(F)c(C(F)(F)F)c(F)c1F)N1CCN(C2CCN(C(=O)c3ccc4[nH]nnc4c3)CC2)CC1 [Compound 114, 4-[1-(1H-Benzotriazole-5-carbonyl)-piperidin-4-yl]-piperazine-1-carboxylic acid 2,3,5,6-tetrafluoro-4-trifluoromethyl-benzyl ester] | < 1 |
| O=C(OCc1ccc(Cl)cc1Cl)N1CCN(C2CCN(C(=O)c3ccc4[nH]nnc4c3)CC2)CC1 [Compound 46, 4-[1-(1H-Benzotriazole-5-carbonyl)-piperidin-4-yl]-piperazine-1-carboxylic acid 2,4-dichloro-benzyl ester] | < 1 |
| O=C(OCc1ccc(C(F)(F)F)cc1)N1CCN(C2CCN(C(=O)c3ccc4[nH]c(=O)sc4c3)CC2)CC1 [Compound 126, 4-[1-(2-Oxo-2,3-dihydro-benzothiazole-6-carbonyl)-piperidin-4-yl]-piperazine-1-carboxylic acid 4-trifluoromethyl-benzyl ester] | < 10 |
| O=C(OCc1ccc(C(F)(F)F)c(Cl)c1)N1CCC(N2CCN(C(=O)c3ccc4[nH]nnc4c3)CC2)CC1 [Compound 92, 4-[4-(1H-Benzotriazole-5-carbonyl)-piperazin-1-yl]-piperidine-1-carboxylic acid 3-chloro-4-trifluoromethyl-benzyl ester] | < 1 |
| O=C(OCc1ccc(C(F)(F)F)cc1)N1CCC(NC2CCN(C(=O)c3ccc4[nH]nnc4c3)C2)CC1 (stereo not drawn) [Compound 70, 4-[1-(1H-Benzotriazole-5-carbonyl)-pyrrolidin-3-ylamino]-piperidine-1-carboxylic acid 4-trifluoromethyl-benzyl ester] | < 10 |
| O=C(NCc1ccc(SC(F)(F)F)cc1)N1CCN(C2CCN(C(=O)c3ccc4[nH]nnc4c3)CC2)CC1 [Compound 122, 4-[1-(1H-Benzotriazole-5-carbonyl)-piperidin-4-yl]-piperazine-1-carboxylic acid 4-trifluoromethylsulfanyl-benzylamide] | < 10 |
| O=C(Nc1ccc2[nH]c(=O)oc2c1)C1CC(=O)N(C2CCN(C(=O)OCc3cc(Cl)cc(Cl)c3)CC2)C1 (stereo not drawn) [Compound 15, 4-[2-Oxo-4-(2-oxo-2,3-dihydro-benzooxazol-6-ylcarbamoyl)-pyrrolidin-1-yl]-piperidine-1-carboxylic acid 3,5-dichloro-benzyl ester] | < 1 |
| Cc1nc(-c2ccc(C(F)(F)F)cc2)sc1C(=O)N1CCC(N2CC(C(=O)Nc3ccc4[nH]nnc4c3)CC2=O)CC1 (stereo not drawn) [Compound 24, 1-{1-[4-Methyl-2-(4-trifluoromethyl-phenyl)-thiazole-5-carbonyl]-piperidin-4-yl}-5-oxo-pyrrolidine-3-carboxylic acid (1H-benzotriazol-5-yl)-amide] | < 10 |
| O=C(CCc1cc(Cl)c(F)c(Cl)c1)N1CCC(N2CCN(C(=O)c3ccc4[nH]nnc4c3)CC2)CC1 [Compound 133, 1-{4-[4-(1H-Benzotriazole-5-carbonyl)-piperazin-1-yl]-piperidin-1-yl}-3-(3,5-dichloro-4-fluoro-phenyl)-propan-1-one] | < 10 |
| O=C(NC1CCC(N2CCN(C(=O)OCc3ccc(SC(F)(F)F)cc3)CC2)CC1)c1ccc2[nH]nnc2c1 (stereo not drawn) [Compound 188, 4-{4-[(1H-Benzotriazole-5-carbonyl)-amino]-cyclohexyl}-piperazine-1-carboxylic acid 4-trifluoromethylsulfanyl-benzyl ester] | < 10 |
| O=C(OCc1cc(C(F)(F)F)cc(C(F)(F)F)c1)N1CCN(C2CCN(C(=O)c3ccc4[nH]c(=O)sc4c3)CC2)CC1 [Compound 163, 4-[1-(2-Oxo-2,3-dihydro-benzothiazole-6-carbonyl)-piperidin-4-yl]-piperazine-1-carboxylic acid 3,5-bis-trifluoromethyl-benzyl ester] | < 1 |
| CC(C)c1ccc(CCC(=O)N2CCC(N3CCN(C(=O)c4ccc5[nH]nnc5c4)CC3)CC2)cc1 [Compound 84, 1-{4-[4-(1H-Benzotriazole-5-carbonyl)-piperazin-1-yl]-piperidin-1-yl}-3-(4-isopropyl-phenyl)-propan-1-one] | < 1 |
| O=C(Nc1ccc2[nH]nnc2c1)C1CC(=O)N(C2CCN(C(=O)CCc3ccc(C(F)(F)F)cc3)CC2)C1 (stereo not drawn) [Compound 3, 5-Oxo-1-{1-[3-(4-trifluoromethyl-phenyl)-propionyl]-piperidin-4-yl}-pyrrolidine-3-carboxylic acid (1H-benzotriazol-5-yl)-amide] | < 1 |
| CC1=NN(c2ccc(NC(=O)C3CC(=O)N(C4CCN(C(=O)OCc5cc(Cl)cc(Cl)c5)CC4)C3)cc2)C(=O)C1 (stereo not drawn) [Compound 56, 4-{4-[4-(3-Methyl-5-oxo-4,5-dihydro-pyrazol-1-yl)-phenylcarbamoyl]-2-oxo-pyrrolidin-1-yl}-piperidine-1-carboxylic acid 3,5-dichloro-benzyl ester] | < 10 |
| O=C(NC1CCC(N2CCN(C(=O)OCc3ccc(C(F)(F)F)c(F)c3)CC2)CC1)c1ccc2[nH]nnc2c1 (stereo not drawn) [Compound 189, 4-{4-[(1H-Benzotriazole-5-carbonyl)-amino]-cyclohexyl}-piperazine-1-carboxylic acid 3-fluoro-4-trifluoromethyl-benzyl ester] | < 10 |
| Cn1nc2ccccc2c1COC(=O)N1CCN(C2CCN(C(=O)c3ccc4[nH]nnc4c3)CC2)CC1 [Compound 134, 4-[1-(1H-Benzotriazole-5-carbonyl)-piperidin-4-yl]-piperazine-1-carboxylic acid 2-methyl-2H-indazol-3-ylmethyl ester] | < 30 |
| O=C(CCc1ccc(Cl)cc1F)N1CCC(NC2CCN(C(=O)c3ccc4[nH]nnc4c3)CC2)C1 (stereo not drawn) [Compound 66, 1-{3-[1-(1H-Benzotriazole-5-carbonyl)-piperidin-4-ylamino]-pyrrolidin-1-yl}-3-(4-chloro-2-fluoro-phenyl)-propan-1-one] | < 10 |
| Cc1c(Br)cc(COC(=O)N2CCN(C3CCN(C(=O)c4ccc5[nH]nnc5c4)CC3)CC2)cc1Br [Compound 98, 4-[1-(1H-Benzotriazole-5-carbonyl)-piperidin-4-yl]-piperazine-1-carboxylic acid 3,5-dibromo-4-methyl-benzyl ester] | < 1 |
| O=C(/C=C/c1cc(Cl)cc(Cl)c1)N1CCC(N2CCN(C(=O)c3ccc4[nH]nnc4c3)CC2)CC1 [Compound 90, (E)-1-{4-[4-(1H-Benzotriazole-5-carbonyl)-piperazin-1-yl]-piperidin-1-yl}-3-(3,5-dichloro-phenyl)-propenone] | < 1 |
| O=C(CCc1cc(Cl)c(F)c(Cl)c1)N1CCN(C2CCN(C(=O)c3ccc4[nH]nnc4c3)CC2)CC1 [Compound 104, 1-{4-[1-(1H-Benzotriazole-5-carbonyl)-piperidin-4-yl]-piperazin-1-yl}-3-(3,5-dichloro-4-fluoro-phenyl)-propan-1-one] | < 10 |
| O=C(OCc1cc(Cl)c(F)c(Cl)c1)N1CCN(C2CCN(C(=O)c3ccc4[nH]nnc4c3)CC2)CC1 [Compound 97, 4-[1-(1H-Benzotriazole-5-carbonyl)-piperidin-4-yl]-piperazine-1-carboxylic acid 3,5-dichloro-4-fluoro-benzyl ester] | < 1 |
| CC(OC(=O)N1CCN(C2CCN(C(=O)c3ccc4[nH]nnc4c3)CC2)CC1)c1ccc(C(F)(F)F)cc1 (stereo not drawn) [Compound 132, 4-[1-(1H-Benzotriazole-5-carbonyl)-piperidin-4-yl]-piperazine-1-carboxylic acid 1-(4-trifluoromethyl-phenyl)-ethyl ester] | < 10 |
| O=C(OCc1ccc(Br)cc1)N1CCC(N2CCN(C(=O)c3ccc4[nH]nnc4c3)CC2)CC1 [Compound 80, 4-[4-(1H-Benzotriazole-5-carbonyl)-piperazin-1-yl]-piperidine-1-carboxylic acid 4-bromo-benzyl ester] | < 1 |
| O=C(NC1CCC(N2CCN(C(=O)OCc3cc(C(F)(F)F)cc(C(F)(F)F)c3)CC2)CC1)c1ccc2[nH]nnc2c1 (stereo not drawn) [Compound 186, 4-{4-[(1H-Benzotriazole-5-carbonyl)-amino]-cyclohexyl}-piperazine-1-carboxylic acid 3,5-bis-trifluoromethyl-benzyl ester] | < 1 |
| CS(=O)(=O)Nc1ccc(C(=O)N2CCN(C3CCN(C(=O)CCc4ccc(C(F)(F)F)cc4)CC3)CC2)cc1 [Compound 59, N-[4-(4-{1-[3-(4-Trifluoromethyl-phenyl)-propionyl]-piperidin-4-yl}-piperazine-1-carbonyl)-phenyl]-methanesulfonamide] | < 10 |
| COc1ccc(Cl)cc1NC(=O)CN1CCC(N2CCN(C(=O)c3ccc4[nH]nnc4c3)CC2)CC1 [Compound 181, 2-{4-[4-(1H-Benzotriazole-5-carbonyl)-piperazin-1-yl]-piperidin-1-yl}-N-(5-chloro-2-methoxy-phenyl)-acetamide] | < 10 |
